# Biological target: T1, P2X7 receptor (Homo sapiens, UniProt Q99572)
# T1 construct: host or cells: SH-SY5Y
# T1 sequence (Q99572 1-595): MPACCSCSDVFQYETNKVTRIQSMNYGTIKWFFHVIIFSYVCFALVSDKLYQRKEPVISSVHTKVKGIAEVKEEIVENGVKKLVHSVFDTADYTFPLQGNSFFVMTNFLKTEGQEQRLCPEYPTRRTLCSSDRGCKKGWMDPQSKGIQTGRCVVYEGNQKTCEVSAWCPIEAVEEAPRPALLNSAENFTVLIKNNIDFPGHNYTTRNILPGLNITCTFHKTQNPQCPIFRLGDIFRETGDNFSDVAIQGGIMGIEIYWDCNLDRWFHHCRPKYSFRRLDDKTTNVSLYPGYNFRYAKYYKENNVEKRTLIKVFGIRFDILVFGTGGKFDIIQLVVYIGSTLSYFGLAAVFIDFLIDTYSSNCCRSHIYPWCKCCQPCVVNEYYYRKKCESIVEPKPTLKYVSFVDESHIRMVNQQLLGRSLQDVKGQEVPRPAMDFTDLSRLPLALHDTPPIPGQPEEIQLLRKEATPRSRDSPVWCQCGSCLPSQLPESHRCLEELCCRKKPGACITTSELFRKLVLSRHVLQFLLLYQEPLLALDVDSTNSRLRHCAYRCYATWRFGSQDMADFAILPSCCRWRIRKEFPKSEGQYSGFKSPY
# Assay: P2X7 calcium mobilization assay, high throughput, antagonist activity (Example 4A)
# Format: cell-based
# Settings: not given
# Description: One day prior to the experiment, cells are plated at a density of 100,000 cells/well in a 96 well black/clear TC plate (Corning® Costar®, Sigma-Aldrich Co., St. Louis, Mo.). […] After one hour dye incubation, wells are rinsed once with 50 μL assay solution, and are then incubated for an hour at room temperature with 100 μL assay solution containing the test compound. […] After the one hour incubation, plates are transferred to a FLIPR^TETRA instrument (Molecular Devices, Sunnyvale, Calif.) for calcium mobilization analysis.
# First, the average maximum relative fluorescent unit (RFU) response from the negative control wells (no agonist) is subtracted from the maximum response detected for each of the other experimental wells. Second, average maximum RFU response is calculated for the positive control wells (agonist wells).
row,Structure (SMILES),IC50 [nM]
1,"CC(C)(C)OC(=O)N[C@@H]1CCN(Cc2cn3c(C(=O)NCC45CC6CC(CC(C6)C4)C5)cccc3n2)C1 [Compound 62, tert-butyl [(3R)-1-({5-[(adamantan-1-ylmethyl)carbamoyl]imi-dazo[1,2-a]pyridin-2-yl}methyl)pyrrolidin-3-yl]carbamate]",< 2000
2,"O=C(NCC12CC3CC(CC(C3)C1)C2)c1cccc2nc(CNCCO)cn12 [Compound 65, N-(adamantan-1-ylmethyl)-2-{[(2-hydroxy-ethyl)amino]methyl}imi-dazo[1,2-a]pyridine-5-carboxamide]",< 2000
3,"C[C@@H](CO)NCc1cn2c(C(=O)NCC34CC5CC(CC(C5)C3)C4)cccc2n1 [Compound 66, N-(adamantan-1-ylmethyl)-2-({[(1S)-2-hydroxy-1-methylethyl]amino}methyl)imi-dazo[1,2-a]pyridine-5-carboxamide]",< 2000

# Same assay, conditions: SH-SY5Y cells; 50% decrease in fluorescence response to 80 μM BzATP; read-out: IC50
row,Structure (SMILES),IC50 [nM]
1,"COC1CCCN(C(=O)Cc2cn3c(C(=O)NCC45CC6CC(CC(C6)C4)C5)cccc3n2)C1 (stereo not drawn) [Compound 47, N-(adamantan-1-ylmethyl)-2-[2-(3-methoxypiperidin-1-yl)-2-oxoethyl]imidazo[1,2-a]pyridine-5-carboxamide]",< 2000
2,"NC(=O)C1CCCN(C(=O)Cc2cn3c(C(=O)NCC45CC6CC(CC(C6)C4)C5)cccc3n2)C1 (stereo not drawn) [Compound 50, N-(adamantan-1-ylmethyl)-2-[2-(3-carbamoylpiperidin-1-yl)-2-oxoethyl]imidazo[1,2-a]pyridine-5-carboxamide]",< 2000
3,"CN(CCO)C(=O)Cc1cn2c(C(=O)NCC34CC5CC(CC(C5)C3)C4)cccc2n1 [Compound 51, N-(adamantan-1-ylmethyl)-2-{2-[(2-hydroxy-ethyl)(methyl)amino]-2-oxoethyl}imidazo[1,2-a]pyridine-5-carboxamide]",< 2000
4,"O=C(NCC12CC3CC(CC(C3)C1)C2)c1cccc2nc(CC(=O)N3CCCC(O)C3)cn12 (stereo not drawn) [Compound 53, N-(adamantan-1-ylmethyl)-2-[2-(3-hydroxypiperidin-1-yl)-2-oxoethyl]imidazo[1,2-a]pyridine-5-carboxamide]",< 2000
5,"O=C(NCC12CC3CC(CC(C3)C1)C2)c1cccc2nc(CC(=O)N3CCC(O)CC3)cn12 [Compound 54, N-(adamantan-1-ylmethyl)-2-[2-(4-hydroxypiperidin-1-yl)-2-oxoethyl]imidazo[1,2-a]pyridine-5-carboxamide]",< 2000
6,"O=C(NCC12CC3CC(CC(C3)C1)C2)c1cccc2nc(CC(=O)N3CC(O)C3)cn12 [Compound 55, N-(adamantan-1-ylmethyl)-2-[2-(3-hydroxyazetidin-1-yl)-2-oxoethyl]imidazo[1,2-a]pyridine-5-carboxamide]",< 2000
7,"CC1(O)CCN(C(=O)Cc2cn3c(C(=O)NCC45CC6CC(CC(C6)C4)C5)cccc3n2)CC1 [Compound 56, N-(adamantan-1-ylmethyl)-2-[2-(4-hydroxy-4-methylpiperidin-1-yl)-2-oxoethyl]imidazo[1,2-a]pyridine-5-carboxamide]",< 2000
8,"CN(CC(C)(C)O)C(=O)Cc1cn2c(C(=O)NCC34CC5CC(CC(C5)C3)C4)cccc2n1 [Compound 57, N-(adamantan-1-ylmethyl)-2-{2-[(2-hydroxy-2-methyl-propyl)(meth-yl)amino]-2-oxoethyl}imidazo[1,2-a]pyridine-5-carboxamide]",< 2000
9,"CN(CCC(C)(C)O)C(=O)Cc1cn2c(C(=O)NCC34CC5CC(CC(C5)C3)C4)cccc2n1 [Compound 58, N-(adamantan-1-ylmethyl)-2-{2-[(3-hydroxy-3-methyl-butyl)(methyl)amino]-2-oxoethyl}imidazo[1,2-a]pyridine-5-carboxamide]",< 2000
10,"CN(CCCC(C)(C)O)C(=O)Cc1cn2c(C(=O)NCC34CC5CC(CC(C5)C3)C4)cccc2n1 [Compound 59, N-(adamantan-1-ylmethyl)-2-{2-[(4-hydroxy-4-methylpentyl)(meth-yl)amino]-2-oxoethyl}imidazo[1,2-a]pyridine-5-carboxamide]",< 2000
11,"CC1(O)CCN(C(=O)Cc2cn3c(C(=O)NCC45CC6CC(CC(C6)C4)C5)cccc3n2)C1 (stereo not drawn) [Compound 60, N-(adamantan-1-ylmethyl)-2-[2-(3-hydroxy-3-methylpyrrolidin-1-yl)-2-oxoethyl]imidazo[1,2-a]pyridine-5-carboxamide]",< 2000
12,"CCOC(=O)Cc1nc2cccc(C(=O)NCC34CC5CC(CC(C5)C3)C4)n2c1Cl [Compound 61, {5-[(Adamantan-1-ylmethyl)-carbamoyl]-3-chloro-imidazo[1,2-a]pyridin-2-yl}-acetic acid ethyl ester]",< 2000
13,"CS(=O)(=O)OCCc1cn2c(C(=O)NCC34CC5CC(CC(C5)C3)C4)cccc2n1 [Compound 63, methanesulfonic acid 2-{5-[(adamantan-1-ylmethyl)-carbamoyl]-imidazo[1,2-a]pyridin-2-yl}-ethyl ester]",< 2000
14,"O=C(NCC12CC3CC(CC(C3)C1)C2)c1cccc2nc(CC(=O)N3CCNCC3)cn12 [Compound 64, N-(adamantan-1-ylmethyl)-2-(2-oxo-2-piperazin-1-ylethyl)imidazo[1,2-a]pyridine-5-carboxamide]",< 2000
15,"CC(=O)NCCNCc1cn2c(C(=O)NCC34CC5CC(CC(C5)C3)C4)cccc2n1 [Compound 67, 2-{[(2-acetamido-ethyl)amino]methyl}-N-(adamantan-1-ylmethyl)imidazo[1,2-a]pyridine-5-carboxamide]",< 2000
16,"O=C(NCC12CC3CC(CC(C3)C1)C2)c1cccc2nc(CNCc3ccccn3)cn12 [Compound 68, N-(adamantan-1-ylmethyl)-2-{[(pyridin-2-ylmethyl)amino]meth-yl}imidazo[1,2-a]pyridine-5-carboxamide]",< 2000
17,"N[C@@H]1CCN(Cc2cn3c(C(=O)NCC45CC6CC(CC(C6)C4)C5)cccc3n2)C1 [Compound 69, N-(adamantan-1-ylmethyl)-2-{[(3R)-3-aminopyrrolidin-1-yl]methyl}imidazo[1,2-a]pyridine-5-carboxamide]",< 2000
18,"CC(=O)N[C@@H]1CCN(Cc2cn3c(C(=O)NCC45CC6CC(CC(C6)C4)C5)cccc3n2)C1 [Compound 70, 2-[(3-acetamidopyrrolidin-1-yl)methyl]-N-(adamantan-1-ylmethyl)imidazo[1,2-a]pyridine-5-carboxamide]",< 2000
19,"CCNC(=O)c1cn2c(C(=O)NCC34CC5CC(CC(C5)C3)C4)cccc2n1 [Compound 72, 5-N-(adamantan-1-ylmethyl)-- ethylimidazo[1,2-a]pyridine-2,5-dicarboxamide]",< 2000
20,"CC(C)CNC(=O)c1cn2c(C(=O)NCC34CC5CC(CC(C5)C3)C4)cccc2n1 [Compound 73, 5-N-(adamantan-1-ylmethyl)-- isobutylimidazo[1,2-a]pyridine-2,5-dicarboxamide]",< 2000
21,"CN(C)C(=O)CNC(=O)c1cn2c(C(=O)NCC34CC5CC(CC(C5)C3)C4)cccc2n1 [Compound 74, 5-N-(adamantan-1-ylmethyl)--[2-(dimethylamino)-2-oxoethyl]imidazo[1,2-a]pyridine-2,5-dicarboxamide]",< 2000
22,"COCCN(C)C(=O)CNC(=O)c1cn2c(C(=O)NCC34CC5CC(CC(C5)C3)C4)cccc2n1 [Compound 75, 5-N-(adamantan-1-ylmethyl)--{2-[(2-methoxy-ethyl)(methyl)amino]-2-oxoethyl}imidazo[1,2-a]pyridine-2,5-dicarboxamide]",< 2000
23,"O=C(NCC(=O)N1CCOCC1)c1cn2c(C(=O)NCC34CC5CC(CC(C5)C3)C4)cccc2n1 [Compound 76, 5-N-(adamantan-1-ylmethyl)--(2-morpholin-4-yl-2-oxoethyl)imidazo[1,2-a]pyridine-2,5-dicarboxamide]",< 2000
24,"NC(=O)CCNC(=O)c1cn2c(C(=O)NCC34CC5CC(CC(C5)C3)C4)cccc2n1 [Compound 77, 5-N-(adamantan-1-ylmethyl)--(3-amino-3-oxopropyl)imidazo[1,2-a]pyridine-2,5-dicarboxamide]",< 2000
25,"NC(=O)CNC(=O)c1cn2c(C(=O)NCC34CC5CC(CC(C5)C3)C4)cccc2n1 [Compound 78, 5-N-(adamantan-1-ylmethyl)--(2-amino-2-oxoethyl)imidazo[1,2-a]pyridine-2,5-dicarboxamide]",< 2000
26,"CC(NC(=O)c1cn2c(C(=O)NCC34CC5CC(CC(C5)C3)C4)cccc2n1)C(N)=O (stereo not drawn) [Compound 79, 5-N-(adamantan-1-ylmethyl)--(2-amino-1-methyl-2-oxoethyl)imidazo[1,2-a]pyridine-2,5-dicarboxamide]",< 2000
27,"O=C(NCCCO)c1cn2c(C(=O)NCC34CC5CC(CC(C5)C3)C4)cccc2n1 [Compound 80, 5-N-(adamantan-1-ylmethyl)--(3-hydroxy-propyl)imidazo[1,2-a]pyridine-2,5-dicarboxamide]",< 2000

# Source: patent publication US8431593B2, “Heteroaryl amide derivatives” (H. Lundbeck A/S, priority 2006, dated 2013)
